Measured values from BigSolDB 2.1.

Nc1c([N+](=O)[O-])c2no[n+]([O-])c2c2no[n+]([O-])c12
solubility (mole fraction)
Settings	288.15 K	293.15 K	298.15 K	303.15 K	308.15 K	313.15 K	318.15 K	323.15 K	328.15 K	333.15 K
in 1,2-dichloroethane	2.98e-05	3.64e-05	4.41e-05	5.31e-05	6.32e-05	7.49e-05	8.9e-05	0.000105	0.000122	0.000142
in DMF	0.00618	0.00747	0.00896	0.0107	0.0126	0.0149	0.0175	0.0204	0.0236	0.0273
in DMSO	–	0.0118	0.0138	0.0161	0.0187	0.0217	0.0249	0.0286	0.0327	0.0373
in NMP	0.00799	0.00948	0.0112	0.0131	0.0153	0.0178	0.0206	0.0237	0.0272	0.031
in acetic acid	–	7.86e-05	9.36e-05	0.000112	0.000131	0.000154	0.000178	0.000206	0.000237	0.000271
in acetone	0.000797	0.00087	0.000968	0.00109	0.00123	0.00137	0.00154	0.00174	–	–
in acetonitrile	0.000322	0.000374	0.000434	0.000497	0.00057	0.000654	0.000744	0.000845	0.000956	0.00108
in cyclohexanone	0.0018	0.00198	0.00218	0.0024	0.00266	0.00295	0.00328	0.00366	0.00409	0.00457
in dichloromethane	1.37e-05	1.73e-05	2.15e-05	2.68e-05	3.31e-05	–	–	–	–	–
in ethanol	6.85e-06	8.94e-06	1.18e-05	1.52e-05	1.95e-05	2.47e-05	3.14e-05	3.94e-05	4.92e-05	6.02e-05
in ethyl acetate	0.000211	0.000244	0.00028	0.000321	0.000367	0.000419	0.000475	0.000536	0.000605	0.000681
in methanol	1.44e-05	1.88e-05	2.42e-05	3.14e-05	4.01e-05	5.01e-05	6.33e-05	7.91e-05	9.73e-05	0.000121
in o-xylene	2.4e-05	3.15e-05	4.14e-05	5.34e-05	6.87e-05	8.74e-05	0.000109	0.000137	0.000169	0.000208
in propionic acid	1.94e-05	2.45e-05	3.15e-05	3.97e-05	4.97e-05	6.16e-05	7.63e-05	9.37e-05	0.000114	0.00014
in toluene	1.03e-05	1.34e-05	1.84e-05	2.45e-05	3.26e-05	4.29e-05	5.63e-05	7.28e-05	9.4e-05	0.00012
